Experimental data as given in US20240108602A1, “TREATMENT OF MENTAL DISORDERS” (GH Research Ireland Limited, priority 2022, published 2024).
“Also recorded” adds a separate entry of the source.

What was measured:
[1] = tested on: human plasma protein; assay: Plasma binding of 5-MIAA (unbound fraction); type: in vitro ADME
Procedure: Binding to human plasma protein was determined. Reported are the unbound fraction (fu) for three replicates as well as the mean unbound fraction, the standard deviation and the mean % recovery (Table 8).

[2] = tested on: human hepatocytes; assay: Metabolite identification after incubation of 5-MeO-DMT with human hepatocytes; details: 5-MeO-DMT free base 10 μM, up to 120 minutes
Procedure: For incubations with cryopreserved hepatocytes, the 2 mM stock solution was diluted with Leibovitz L-15 medium to a concentration of 20 μM or 2 μM. An aliquot (250 μL) of the 20 μM and 2 μM test substance formulations was added to each hepatocyte incubation sample (250 μL), as appropriate, so that the final test substance concentration in the incubations was 10 μM or 1 μM, respectively, and incubations contained less than 1% (v/v) solvent.
Incubations were performed at ca. 37° C. in a shaking water bath (total incubation volume 0.5 mL). For 1 μM, incubations were terminated after 0, 5, 10, 20, 30, 60 and 120 minutes, by the addition of ice-cold acetonitrile (0.5 mL).
The samples were vortex mixed and centrifuged at ca 13,000 rpm for 10 minutes at room temperature. Following centrifugation, the protein-free supernatants were removed for analysis.
Blank control incubations were carried out with Leibovitz L-15 medium in place of the test substance. No cells control samples were performed with Leibovitz L-15 medium in place of hepatocytes. Aliquots of the blank control samples were taken at 120 minutes, while no cells control samples were taken at 0, 30 and 120 for 1 μM incubations and at 0 and 120 minutes for 10 μM incubations.
All 1 μM incubations were performed in duplicate, while all 10 μM incubations were performed in singlet. All samples were stored at −80° C. (nominal) prior to analysis.
Prior to sample analysis a 100 μL aliquot of each sample was evaporated to near dryness under a steady stream of nitrogen at room temperature, and subsequently reconstituted in 50 μL of mobile phase A (0.1% formic acid in water). Each sample (0, 30 and 120-minute, 10 μM) was analysed using accurate mass LC-MS to determine relative levels of parent compound at each time-point, and determine the profile of metabolites formed. Appropriate blank and control samples were also analysed. The 10 and 60-minute, 10 μM incubation samples were not analysed and were stored at −80° C. (nominal).
Data were interrogated for the presence of metabolites by comparison of retention times with the test substance reference standard and based on the accurate masses of potential metabolites using screening software (UNIFI version 1.9.4), and user defined search parameters. To confirm a suspected metabolite, the measured accurate mass of the peak detected in the sample used for structural elucidation had to be within 5 ppm of the theoretical mass in order to confirm the molecular formula.

[3] = 5-MeO-DMT, 5-MIAA and bufotenine in urine, serum and breastmilk of a lactating PPD patient, LC-MS/MS
Procedure: The second patients was lactating, and, per the clinical trial protocol, breastmilk samples were collected pre-dosing and at multiple timepoints after administration of the last dose. […] Similar analyses were carried out on patient serum and urine samples.

[4] = tested on: human hepatocytes; assay: Metabolic stability in Hμrel human hepatocyte co-culture model
[5] = 1.0 hrs after last dose (6 mg then 12 mg 5-MeO-DMT)

SMILES: CC(=O)CC(c1ccccc1)c1c(O)c2ccccc2oc1=O (centres unmarked) [Warfarin, reference compound]
- Mean % Recovery [1]: 78.1%
- Mean fu [1]: 0.0377
- unbound fraction (fu), Replicate 1 [1]: 0.0418
- unbound fraction (fu), Replicate 2 [1]: 0.0356
- unbound fraction (fu), Replicate 3 [1]: 0.0358

SMILES: COc1ccc2[nH]cc(CC[N+](C)(C)[O-])c2c1 [5-MeO-DMT-N-oxide]
- Relative Proportion of compound after incubation of 5-MeO-DMT [2]: 1%

SMILES: CN(C)CCc1c[nH]c2ccc(O)cc12 [Bufotenine]
- Breastmilk concentration [3, 5]: BLQ (BLQ: Below limit of quantification. The lower limit of quantification is 25 pg/ml for both 5-MeO-DMT and 5-MIAA in both serum and breastmilk; it is 25 pg/ml in urine for 5-MeO-DMT and 250 pg/ml for 5-MIAA in urine.)
- Serum concentration [3, 5]: BLQ (BLQ: Below limit of quantification. The lower limit of quantification is 25 pg/ml for both 5-MeO-DMT and 5-MIAA in both serum and breastmilk; it is 25 pg/ml in urine for 5-MeO-DMT and 250 pg/ml for 5-MIAA in urine.)
- Breastmilk concentration ([3]; 2.5 hrs after last dose): BLQ (BLQ: Below limit of quantification. The lower limit of quantification is 25 pg/ml for both 5-MeO-DMT and 5-MIAA in both serum and breastmilk; it is 25 pg/ml in urine for 5-MeO-DMT and 250 pg/ml for 5-MIAA in urine.)
- Serum concentration ([3]; 2.5 hrs after last dose): BLQ (BLQ: Below limit of quantification. The lower limit of quantification is 25 pg/ml for both 5-MeO-DMT and 5-MIAA in both serum and breastmilk; it is 25 pg/ml in urine for 5-MeO-DMT and 250 pg/ml for 5-MIAA in urine.)
- Urine concentration ([3]; 2.5 hrs after last dose): 32.3 pg/mL
- Breastmilk concentration ([3]; 8.5 hrs after last dose): BLQ (BLQ: Below limit of quantification. The lower limit of quantification is 25 pg/ml for both 5-MeO-DMT and 5-MIAA in both serum and breastmilk; it is 25 pg/ml in urine for 5-MeO-DMT and 250 pg/ml for 5-MIAA in urine.)
- Urine concentration ([3]; 8.5 hrs after last dose): BLQ (BLQ: Below limit of quantification. The lower limit of quantification is 25 pg/ml for both 5-MeO-DMT and 5-MIAA in both serum and breastmilk; it is 25 pg/ml in urine for 5-MeO-DMT and 250 pg/ml for 5-MIAA in urine.)
- Breastmilk concentration ([3]; 24.0 hrs after last dose): BLQ (BLQ: Below limit of quantification. The lower limit of quantification is 25 pg/ml for both 5-MeO-DMT and 5-MIAA in both serum and breastmilk; it is 25 pg/ml in urine for 5-MeO-DMT and 250 pg/ml for 5-MIAA in urine.)
- Serum concentration ([3]; 24.0 hrs after last dose): BLQ (BLQ: Below limit of quantification. The lower limit of quantification is 25 pg/ml for both 5-MeO-DMT and 5-MIAA in both serum and breastmilk; it is 25 pg/ml in urine for 5-MeO-DMT and 250 pg/ml for 5-MIAA in urine.)
- Urine concentration ([3]; 24.0 hrs after last dose): BLQ (BLQ: Below limit of quantification. The lower limit of quantification is 25 pg/ml for both 5-MeO-DMT and 5-MIAA in both serum and breastmilk; it is 25 pg/ml in urine for 5-MeO-DMT and 250 pg/ml for 5-MIAA in urine.)
- Breastmilk concentration ([3]; 120.0 hrs after last dose): BLQ (BLQ: Below limit of quantification. The lower limit of quantification is 25 pg/ml for both 5-MeO-DMT and 5-MIAA in both serum and breastmilk; it is 25 pg/ml in urine for 5-MeO-DMT and 250 pg/ml for 5-MIAA in urine.)
- Serum concentration ([3]; 120.0 hrs after last dose): BLQ (BLQ: Below limit of quantification. The lower limit of quantification is 25 pg/ml for both 5-MeO-DMT and 5-MIAA in both serum and breastmilk; it is 25 pg/ml in urine for 5-MeO-DMT and 250 pg/ml for 5-MIAA in urine.)
- Urine concentration ([3]; 120.0 hrs after last dose): BLQ (BLQ: Below limit of quantification. The lower limit of quantification is 25 pg/ml for both 5-MeO-DMT and 5-MIAA in both serum and breastmilk; it is 25 pg/ml in urine for 5-MeO-DMT and 250 pg/ml for 5-MIAA in urine.)
- detection in serum and breastmilk ([3]; any time point): absence of bufotenine; also recorded: not detected
- Breastmilk concentration ([3]; −24.0 hrs (pre-dosing)): BLQ (BLQ: Below limit of quantification. The lower limit of quantification is 25 pg/ml for both 5-MeO-DMT and 5-MIAA in both serum and breastmilk; it is 25 pg/ml in urine for 5-MeO-DMT and 250 pg/ml for 5-MIAA in urine.)
- Serum concentration ([3]; −24.0 hrs (pre-dosing)): BLQ (BLQ: Below limit of quantification. The lower limit of quantification is 25 pg/ml for both 5-MeO-DMT and 5-MIAA in both serum and breastmilk; it is 25 pg/ml in urine for 5-MeO-DMT and 250 pg/ml for 5-MIAA in urine.)
- Urine concentration ([3]; −24.0 hrs (pre-dosing)): BLQ (BLQ: Below limit of quantification. The lower limit of quantification is 25 pg/ml for both 5-MeO-DMT and 5-MIAA in both serum and breastmilk; it is 25 pg/ml in urine for 5-MeO-DMT and 250 pg/ml for 5-MIAA in urine.)
- Relative Proportion of compound after incubation of 5-MeO-DMT [2]: 5%

SMILES: COc1ccc2[nH]cc(CCO)c2c1 [5-methoxytryptophol, 5-Methoxyindole-3-ethanol]
- Relative Proportion of compound after incubation of 5-MeO-DMT [2]: 25%
- relative LC/MS peak area ([4]; 1 μM Stromal cells, 0 h): 100%
- relative LC/MS peak area ([4]; 1 μM Stromal cells, 4 h): 97%
- relative LC/MS peak area ([4]; 1 μM Stromal cells, 8 h): 107%
- relative LC/MS peak area ([4]; 1 μM Stromal cells, 24 h): 94%
- relative LC/MS peak area ([4]; 1 μM Stromal cells, 48 h): 102%
- relative LC/MS peak area ([4]; 1 μM Stromal cells, 72 h): 104%
- relative LC/MS peak area ([4]; 10 μM Stromal cells, 0 h): 100%
- relative LC/MS peak area ([4]; 10 μM Stromal cells, 4 h): 99%
- relative LC/MS peak area ([4]; 10 μM Stromal cells, 8 h): 105%
- relative LC/MS peak area ([4]; 10 μM Stromal cells, 24 h): 86%
- relative LC/MS peak area ([4]; 10 μM Stromal cells, 48 h): 98%
- relative LC/MS peak area ([4]; 10 μM Stromal cells, 72 h): 104%
- metabolic turnover ([4]; human hepatocytes): high metabolic turnover
- half-life ([4]; human hepatocytes, 1 μM): 2.37 h
- in vitro intrinsic clearance ([4]; human hepatocytes, 1 μM): 16.2 μl/min/million cells
- disappearance with stromal cell controls ([4]; stromal cell controls): no disappearance
